Source: US9676806B2, “Metal-based thiophene photodynamic compounds and their use” (priority 2012, dated 2017)

Tested on: pUC19 plasmid DNA
Assay: PDC-mediated pUC19 photocleavage, gel electrophoretic analysis
[1] = Air, +hv, 420-nm irradiation 1 hr, FIG. 15
[2] = Air, +hv, visible irradiation 1 hr, 21 W/m^2, FIG. 16
[3] = Ar, +hv, 420-nm irradiation 1 hr, FIG. 15
[4] = Ar, +hv, visible irradiation 1 hr, 21 W/m^2, FIG. 16

Experimental: FIG. 16: Gel electrophoretic analysis (1% agarose gel precast with 0.75 μg mL^−1 ethidium bromide, 1×TAE, 8 V cm^−1, 30 min.) of PDC-mediated pUC19 photocleavage in air-saturated and deoxygenated solution: visible irradiation of pUC19 (20 μM NP in 10 mM Tris·100 mM NaCl, pH 7.4) for 1 hr. with cool white fluorescent tubes, 21 W/m^2. Lanes 1 (−PDC, −hv), 2 (500 μM [Ru(bpy)3]^2+, −hv), and 5 (2 μM 10a, −hv) are controls. Lanes 3 (500 μM [Ru(bpy)3]^2+, +hv) and 6 (2 μM 10a, +hv) contain samples that were irradiated in air; lanes 4 and 7 are the corresponding samples irradiated in argon.
DNA photocleavage experiments were performed according to a general plasmid DNA assay with 20 μL total sample volumes in 0.5 or 1.5 mL microfuge tubes containing transformed pUC19 plasmid (200 ng, >95% Form I) in 10 mM MOPS buffer and 100 mM NaCl, pH 7.4. DNA (1-5 μL) was delivered to the assay tubes as a solution in 10 mM Tris-Cl (pH 8.5) and diluted with MOPS (pH 7.5, final concentration 10 mM) and NaCl (final concentration 100 mM). […] Complexes were dissolved initially in acetonitrile (2 μM stock solutions), and all subsequent dilutions were made with ddH2O where final assay tubes contained <1% acetonitrile. For concentration-based assays, samples (no pre-incubation period) were irradiated in air for 30 min with 420 nm light inside a photoreactor (Luzchem LZC-4X). Where irradiation of deoxygenated samples was required, argon was bubbled through the solutions for 15 min prior to irradiation under a positive pressure of argon. All samples were quenched by the addition of gel loading buffer (4 μL), loaded onto 1% agarose gels containing ethidium bromide (0.75 μg mL^−1), and electrophoresed for 30 min at 8-12 V cm^−1 in 1×TAE (40 mM Trisacetate, 1 mM EDTA, pH 8.2). The bands were visualized with UV-transillumination (UVP transilluminator) and quantified using the Gel Doc-It Imaging system (UVP) or GNU Image Manipulation Program (GIMP).

## [Ru+2].c1ccc(-c2ccccn2)nc1.c1ccc(-c2ccccn2)nc1.c1ccc(-c2ccccn2)nc1 [[Ru(bpy)^3]^2+]
[1]
  Form I: 33%
  Form II: 67%
[2]
  Form I: 37%
  Form II: 63%
Air, dark, 420-nm experiment FIG. 15
  Form II: 29%
Air, dark, 420-nm experiment FIG. 15, 300 μM [Ru(bpy)3]2+, 2 μM 10a, 4 μM 10b, 8 μM 14a
  Form I: 71%
Air, dark, visible experiment FIG. 16
  Form II: 28%
Air, dark, visible experiment FIG. 16, 500 μM [Ru(bpy)3]2+, 2 μM 10a
  Form I: 72%
[3]
  Form I: 71%
  Form II: 29%
[4]
  Form I: 57%
  Form II: 43%
